Test results reported in patent US10556902B2 (Asceneuron SA, priority 2016, dated 2020).

biological target: His-Tagged hOGA (human O-GlcNAcase) (Homo sapiens (Human), UniProt O60502); test: Human O-GlcNAcase enzyme inhibition assay; type: biochemical; conditions: OGA IC50 (M), FL-GlcNAc substrate, pH 6.5, activity classes defined in μM;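 note: reactions contained 20 nM His-tagged hOGA enzyme with 10 µM FL-GlcNAc substrate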
Sequence (O60502 whole entry): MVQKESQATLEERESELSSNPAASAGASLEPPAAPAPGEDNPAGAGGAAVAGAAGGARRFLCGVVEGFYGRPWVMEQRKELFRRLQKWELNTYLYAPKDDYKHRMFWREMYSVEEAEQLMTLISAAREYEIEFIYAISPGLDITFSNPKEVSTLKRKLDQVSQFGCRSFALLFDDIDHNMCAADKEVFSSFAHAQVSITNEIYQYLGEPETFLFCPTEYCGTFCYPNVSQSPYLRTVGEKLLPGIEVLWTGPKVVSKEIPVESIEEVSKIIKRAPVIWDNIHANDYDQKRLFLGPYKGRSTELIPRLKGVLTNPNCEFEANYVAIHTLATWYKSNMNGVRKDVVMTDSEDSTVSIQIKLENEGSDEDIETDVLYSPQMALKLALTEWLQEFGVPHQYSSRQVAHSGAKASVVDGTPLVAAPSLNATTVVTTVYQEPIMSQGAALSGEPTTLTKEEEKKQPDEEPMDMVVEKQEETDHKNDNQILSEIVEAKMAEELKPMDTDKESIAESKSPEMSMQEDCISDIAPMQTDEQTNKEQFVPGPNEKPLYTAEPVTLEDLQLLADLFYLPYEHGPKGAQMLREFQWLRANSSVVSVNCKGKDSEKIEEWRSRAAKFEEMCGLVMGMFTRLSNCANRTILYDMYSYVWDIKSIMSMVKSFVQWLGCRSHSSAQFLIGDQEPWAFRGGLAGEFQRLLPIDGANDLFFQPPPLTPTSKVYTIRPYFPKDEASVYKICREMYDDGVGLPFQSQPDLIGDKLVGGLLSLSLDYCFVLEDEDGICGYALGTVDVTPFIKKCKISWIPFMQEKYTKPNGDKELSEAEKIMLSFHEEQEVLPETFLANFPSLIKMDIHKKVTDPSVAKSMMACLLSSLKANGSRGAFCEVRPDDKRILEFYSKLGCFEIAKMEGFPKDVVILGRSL
Procedure: Then, 20 nM of His-Tagged hOGA and 10 μM of FL-GlcNAc (Fluorescein mono-beta-D-(2-deoxy-2-N-acetyl) glucopyranoside; Marker Gene Technologies Inc, M1485) were added to the 384-well plate for a final volume of 20 μl.

Structure (SMILES)	IC50 [M]
CC(O)c1nnc(N2CCN(C(C)c3ccc4nccnc4c3)CC2)s1 (racemic) [Example 115, 1-(5-(4-(1-(quinoxalin-6-yl)ethyl)piperazin-1-yl)-1,3,4-thiadiazol-2-yl)ethan-1-ol]	2e-07 to 1e-06
CC(c1ccc2nccnc2c1)N1CCC(n2cc(C(F)(F)F)cn2)CC1 (stereo not drawn) [Example 31]	1e-06 to 1e-05
CC(c1ccc2nccnc2c1)N1CCN(c2ccc(=O)[nH]n2)CC1 (stereo not drawn) [Example 39]	5e-08 to 2e-07

same assay, conditions: OGA enzyme inhibition assay; FL-GlcNAc substrate, pH 6.5; activity classes defined in μM; read-out: OGA IC50

Structure (SMILES)	IC50 [M]
CC(O)c1nnc(N2CCN(C(C)c3ccc4c(c3)OCC4)CC2)s1 (racemic) [Example 114, 1-(5-(4-(1-(2,3-dihydrobenzofuran-6-yl)ethyl)piperazin-1-yl)-1,3,4-thiadiazol-2-yl)ethan-1-ol]	< 5e-08
Cc1nnc(N2CCN(C(C)c3ccc4nccnc4c3)CC2)s1 (racemic) [Example 116, 2-methyl-5-(4-(1-(quinoxalin-6-yl)ethyl)piperazin-1-yl)-1,3,4-thiadiazolequinoxaline]	2e-07 to 1e-06
CCOC(=O)c1nnc(N2CCN(C(C)c3ccc4c(c3)OCC4)CC2)s1 (racemic) [Example 117, Ethyl 5-(4-(1-(2,3-dihydrobenzofuran-6-yl)ethyl)piperazin-1-yl)-1,3,4-thiadiazole-2-carboxylate]	5e-08 to 2e-07
CNC(=O)c1nnc(N2CCN(C(C)c3ccc4c(c3)OCC4)CC2)s1 (racemic) [Example 118, 5-(4-(1-(2,3-dihydrobenzofuran-6-yl)ethyl)piperazin-1-yl)-N-methyl-1,3,4-thiadiazole-2-carboxamide]	< 5e-08
CC(c1ccc2c(c1)OCC2)N1CCN(c2nnc(C(=O)N(C)C)s2)CC1 (racemic) [Example 119, 5-(4-(1-(2,3-dihydrobenzofuran-6-yl)ethyl)piperazin-1-yl)-N,N-dimethyl-1,3,4-thiadiazole-2-carboxamide]	< 5e-08
CCOC(=O)c1nnc(N2CCN(C(C)c3ccc4nccnc4c3)CC2)s1 (racemic) [Example 120, Ethyl 5-(4-(1-(quinoxalin-6-yl)ethyl)piperazin-1-yl)-1,3,4-thiadiazole-2-carboxylate]	1e-06 to 1e-05
CNC(=O)c1nnc(N2CCN(C(C)c3ccc4nccnc4c3)CC2)s1 (racemic) [Example 121, N-methyl-5-(4-(1-(quinoxalin-6-yl)ethyl)piperazin-1-yl)-1,3,4-thiadiazole-2-carboxamide]	2e-07 to 1e-06
CC(c1ccc2nccnc2c1)N1CCN(c2nnc(C(=O)N(C)C)s2)CC1 (racemic) [Example 122, N,N-dimethyl-5-(4-(1-(quinoxalin-6-yl)ethyl)piperazin-1-yl)-1,3,4-thiadiazole-2 carboxamide]	2e-07 to 1e-06
CC(c1ccc2c(c1)OCC2)N1CCN(c2nnc(CN(C)C)s2)CC1 (racemic) [Example 123, 1-(5-(4-(1-(2,3-dihydrobenzofuran-6-yl)ethyl)piperazin-1-yl)-1,3,4-thiadiazol-2-yl)-N,N-dimethylmethanamine]	< 5e-08
CC(c1ccc2c(c1)OCC2)N1CCN(c2nnc(CN)s2)CC1 (racemic) [Example 124, (5-(4-(1-(2,3-dihydrobenzofuran-6-yl)ethyl)piperazin-1-yl)-1,3,4-thiadiazol-2-yl)methanamine]	< 5e-08
CC(c1ccc2nccnc2c1)N1CCN(c2nnc(CN(C)C)s2)CC1 (racemic) [Example 125, N,N-dimethyl-1-(5-(4-(1-(quinoxalin-6-yl)ethyl)piperazin-1-yl)-1,3,4-thiadiazol-2-yl)methanamine]	2e-07 to 1e-06
CC(c1ccc2nccnc2c1)N1CCN(c2nnc(CN)s2)CC1 (racemic) [Example 126, (5-(4-(1-(quinoxalin-6-yl)ethyl)piperazin-1-yl)-1,3,4-thiadiazol-2-yl)methanamine]	2e-07 to 1e-06
CC(c1ccc2c(c1)OCC2)N1CCN(c2nc3c(s2)CNCC3)CC1 (single isomer, unassigned) [Example 17]	< 5e-08
CC(c1ccc2nccnc2c1)N1CCN(c2ccc(=O)[nH]n2)CC1 (single isomer, unassigned) [Example 38, (S)-6-(4-(1-(quinoxalin-6-yl)ethyl)piperazin-1-yl)pyridazin-3(2H)-one or (R)-6-(4-(1-(quinoxalin-6-yl)ethyl)piperazin-1-yl)pyridazin-3(2H)-one]	5e-08 to 2e-07
CC(=O)Nc1nnc(N2CCN(C(C)c3ccc4c(c3)OCC4)CC2)s1 (single isomer, unassigned) [Example 108]	1e-06 to 1e-05
CC(=O)Nc1nnc(N2CCN(C(C)c3ccc4c(c3)OCC4)CC2)s1 (single isomer, unassigned) [Example 109]	< 5e-08
C[C@@H](c1cnc2cccnc2c1)N1CCN(c2ncc(C(F)(F)F)cn2)CC1 [Example 221]	2e-07 to 1e-06
CC(=O)Nc1nnc(N2CCN([C@@H](C)c3cnc4cccnc4c3)CC2)s1 [Example 222]	5e-08 to 2e-07
